Measurements reported in patent US11453683B1, “KRas G12D inhibitors” (Mirati Therapeutics, Inc., priority 2019, dated 2022).
Structures can show the parent of a compound that is named as a salt.

tested on: KRas G12D-mediated phosphorylation of ERK; assay: Inhibition of KRas G12D-mediated phosphorylation of ERK in AGS cells; type: cell-based; conditions: Homo sapiens; AGS cells expressing G12D, 3 hours, phospho-ERK normalized to GAPDH
Description: Cells were plated in tissue culture treated 96 well plates at a density of 40,000 cells/well and allowed to attach for 12-14 hours. Diluted compounds were then added in a final concentration of 0.5% DMSO. After 3 hours, the medium was removed, 150 μL of 4.0% formaldehyde was added and the plates incubated at room temperature for 20 minutes. The plates were washed with PBS, and permeabilized with 150 μL of ice cold 100% methanol for 10 minutes. Non-specific antibody binding to the plates was blocked using 100 μL Licor blocking buffer (Li-Cor Biotechnology, Lincoln Nebr.) for 1 hour at room temperature.
The amount of phospho-ERK was determined using an antibody specific for the phosphorylated form of ERK and compared to the amount of GAPDH. Primary antibodies used for the detection were added as follows: Phospho-ERK (Cell Signaling cs-9101) diluted 1:500 and GAPDH (Millipore MAB374) diluted 1:5000 in Licor block+0.05% Tween 20. The plates were incubated for 2 hours at room temperature. The plates were washed with PBS+0.05% Tween 20.
Secondary antibodies used to visualize primary antibodies were added as follows: Anti-rabbit-680 diluted 1:1000 and Anti-mouse-800 diluted 1:1000 both in Licor block+0.05% TweeN2O, and were incubated for 1 hour at room temperature. The plates were washed with PBS+0.05% Tween 20. A 100 μL aliquot of PBS was added to each well and the plates were read on a Li-Cor Odyssey CLX plate reader.
The phospho-ERK (Thr202/Tyr204 signal was normalized to the GAPDH signal for each well and percent of DMSO control values were calculated. IC50 values were generated using a 4-parameter fit of the dose response curve

Structure (SMILES)	IC50
Fc1c(-c2cccc3cccc(Cl)c23)ncc2c(N3CC4CCC(C3)N4)nc(OC[C@@]34CCCN3C[C@@H](C(F)(F)F)C4)nc12 (mixture of isomers) [Example 382, 4-((1R,5S)-3,8-diazabicyclo[3.2.1]octan-3-yl)-7-(8-chloronaphthalen-1-yl)-8-fluoro-2-(((2S,7aS)-2-(trifluoromethyl)tetrahydro-1H-pyrrolizin-7a(5H)-yl)methoxy)pyrido[4,3-d]pyrimidine) (mixture of cis diastereomers)]	> 16700 nM
Oc1cc(-c2ncc3c(N4CC5CCC(C4)N5)nc(OCC45CCCN4C(CF)CC5)nc3c2F)c2ccccc2c1 (mixture of isomers) [Example 384, 4-(4-((1R,5S)-3,8-diazabicyclo[3.2.1]octan-3-yl)-8-fluoro-2-((3-(fluoromethyl)tetrahydro-1H-pyrrolizin-7a(5H)-yl)methoxy)pyrido[4,3-d]pyrimidin-7-yl)naphthalen-2-ol (mixture of isomers)]	398 nM
COC1CN2CCCC2(COc2nc(N3CC4CCC(C3)N4)c3cnc(-c4cc(O)cc5cccc(F)c45)c(F)c3n2)C1 (mixture of isomers) [Example 388, 4-(4-((1R,5S)-3,8-diazabicyclo[3.2.1]octan-3-yl)-8-fluoro-2-((2-methoxytetrahydro-1H-pyrrolizin-7a(5H)-yl)methoxy)pyrido[4,3-d]pyrimidin-7-yl)-5-fluoronaphthalen-2-ol (mixture of trans diastereomers)]	40.2 nM
CCc1cccc2cncc(-c3ncc4c(N5CC6CCC(C5)N6)nc(OCC56CCCN5C[C@H](F)C6)nc4c3F)c12 (mixture of isomers) [Example 324, 4-((1R,5S)-3,8-diazabicyclo[3.2.1]octan-3-yl)-7-(5-ethylisoquinolin-4-yl)-8-fluoro-2-((2-fluorotetrahydro-1H-pyrrolizin-7a(5H)-yl)methoxy)pyrido[4,3-d]pyrimidine]	864 nM
CC1(C)CN2C[C@H](F)CC2(COc2nc(N3CC4CCC(C3)N4)c3cnc(-c4cccc5cccc(Cl)c45)c(F)c3n2)C1 (mixture of isomers) [Example 325, 4-((1R,5S)-3,8-diazabicyclo[3.2.1]octan-3-yl)-7-(8-chloronaphthalen-1-yl)-8-fluoro-2-((6-fluoro-2,2-dimethyltetrahydro-1H-pyrrolizin-7a(5H)-yl)methoxy)pyrido[4,3-d]pyrimidine]	> 16700 nM
Oc1cc(-c2ncc3c(N4CC5CCC(C4)N5)nc(OCC45CCCN4C[C@H](F)C5)nc3c2F)c2c(Cl)cccc2c1 (mixture of isomers) [Example 330, 4-(4-((1R,5S)-3,8-diazabicyclo[3.2.1]octan-3-yl)-8-fluoro-2-((2-fluorotetrahydro-1H-pyrrolizin-7a(5H)-yl)methoxy)pyrido[4,3-d]pyrimidin-7-yl)-5-chloronaphthalen-2-ol]	11.8 nM
Cc1ccc2[nH]ncc2c1-c1ncc2c(N3CC4CCC(C3)N4)nc(OCC34CCCN3C[C@H](F)C4)nc2c1F (mixture of isomers) [Example 331, 4-((1R,5S)-3,8-diazabicyclo[3.2.1]octan-3-yl)-8-fluoro-2-((2-fluorotetrahydro-1H-pyrrolizin-7a(5H)-yl)methoxy)-7-(5-methyl-1H-indazol-4-yl)pyrido[4,3-d]pyrimidine]	10800 nM
Fc1ccc2cccc(-c3ncc4c(N5CC6CCC(C5)N6)nc(OC[C@@]56CCCN5C[C@H](F)C6)nc4c3F)c2c1Cl (racemic) [Example 336, 4-((1R,5S)-3,8-diazabicyclo[3.2.1]octan-3-yl)-7-(8-chloro-7-fluoronaphthalen-1-yl)-8-fluoro-2-((2-fluorotetrahydro-1H-pyrrolizin-7a(5H)-yl)methoxy)pyrido[4,3-d]pyrimidine]	1060 nM
Oc1ccc(OC(F)(F)F)c(-c2ncc3c(N4CC5CCC(C4)N5)nc(OCC45CCCN4C[C@H](F)C5)nc3c2F)c1 (mixture of isomers) [Example 340, 3-(4-((1R,5S)-3,8-diazabicyclo[3.2.1]octan-3-yl)-8-fluoro-2-((2-fluorotetrahydro-1H-pyrrolizin-7a(5H)-yl)methoxy)pyrido[4,3-d]pyrimidin-7-yl)-4-(trifluoromethoxy)phenol]	51.5 nM
Fc1c(-c2cccc(Cl)c2C2CC2)ncc2c(N3CC4CCC(C3)N4)nc(OCC34CCCN3C[C@H](F)C4)nc12 (mixture of isomers) [Example 342, 4-((1R,5S)-3,8-diazabicyclo[3.2.1]octan-3-yl)-7-(3-chloro-2-cyclopropylphenyl)-8-fluoro-2-((2-fluorotetrahydro-1H-pyrrolizin-7a(5H)-yl)methoxy)pyrido[4,3-d]pyrimidine]	1000 nM
Fc1c(-c2c(C(F)(F)F)ccc3[nH]ncc23)ncc2c(N3CC4CCC(C3)N4)nc(OCC34CCCN3C[C@H](F)C4)nc12 (mixture of isomers) [Example 343, 4-((1R,5S)-3,8-diazabicyclo[3.2.1]octan-3-yl)-8-fluoro-2-((2-fluorotetrahydro-1H-pyrrolizin-7a(5H)-yl)methoxy)-7-(5-(trifluoromethyl)-1H-indazol-4-yl)pyrido[4,3-d]pyrimidine]	1620 nM
Fc1c(-c2cccc3cccc(Cl)c23)ncc2c(N3CC4CCC(C3)N4)nc(OC[C@@]34CCCN3C[C@H](F)C4)nc12 (stereo in doubt) [Example 134, 4-((1R,5S)-3,8-diazabicyclo[3.2.1]octan-3-yl)-7-(8-chloronaphthalen-1-yl)-8-fluoro-2-((2-fluorotetrahydro-1H-pyrrolizin-7a(5H)-yl)methoxy)pyrido[4,3-d]pyrimidine]	895 nM
Cn1cc([C@H]2CN3CCC[C@]3(COc3nc(N4CC5CCC(C4)N5)c4cnc(-c5cccc6cccc(Cl)c56)c(F)c4n3)C2)cn1 (stereo in doubt) [Example 220, 4-((1R,5S)-3,8-diazabicyclo[3.2.1]octan-3-yl)-7-(8-chloronaphthalen-1-yl)-8-fluoro-2-((2-(1-methyl-1H-pyrazol-4-yl)tetrahydro-1H-pyrrolizin-7a(5H)-yl)methoxy)pyrido[4,3-d]pyrimidine tris-hydrochloride salt]	1340 nM
Fc1c(-c2cccc3cccc(Cl)c23)ncc2c(N3CC4CCC(C3)N4)nc(OC[C@]34CCCN3C[C@H](c3ccccc3)C4)nc12 (stereo in doubt) [Example 221, 4-((1R,5S)-3,8-diazabicyclo[3.2.1]octan-3-yl)-7-(8-chloronaphthalen-1-yl)-8-fluoro-2-((2-phenyltetrahydro-1H-pyrrolizin-7a(5H)-yl)methoxy)pyrido[4,3-d]pyrimidine bis-hydrochloride salt]	15800 nM
O[C@H]1CN2CCC[C@]2(COc2nc(N3CC4CCC(C3)N4)c3cnc(-c4cccc5cccc(Cl)c45)c(F)c3n2)C1 (stereo in doubt) [Example 224, 7a-(((4-((1R,5S)-3,8-diazabicyclo[3.2.1]octan-3-yl)-7-(8-chloronaphthalen-1-yl)-8-fluoropyrido[4,3-d]pyrimidin-2-yl)oxy)methyl)hexahydro-1H-pyrrolizin-2-ol bis-hydrochloride]	6380 nM
C[C@H]1CN2CCC[C@@]2(COc2nc(N3CC4CCC(C3)N4)c3cnc(-c4cccc5cccc(Cl)c45)c(F)c3n2)C1 (stereo in doubt) [Example 227, 4-((1R,5S)-3,8-diazabicyclo[3.2.1]octan-3-yl)-7-(8-chloronaphthalen-1-yl)-8-fluoro-2-((2-methyltetrahydro-1H-pyrrolizin-7a(5H)-yl)methoxy)pyrido[4,3-d]pyrimidine bis-hydrochloride]	2980 nM
CCc1c(F)ccc2cccc(-c3ncc4c(N5CC6CCC(C5)N6)nc(OC[C@@]56CCCN5C[C@H](F)C6)nc4c3F)c12 (stereo in doubt) [Example 381, 4-((1R,5S)-3,8-diazabicyclo[3.2.1]octan-3-yl)-7-(8-ethyl-7-fluoronaphthalen-1-yl)-8-fluoro-2-((2-fluorotetrahydro-1H-pyrrolizin-7a(5H)-yl)methoxy)pyrido[4,3-d]pyrimidine]	708 nM
COC[C@H]1CC[C@@]2(COc3nc(N4CC5CCC(C4)N5)c4cnc(-c5cc(O)cc6ccccc56)c(F)c4n3)CCCN12 (stereo in doubt) [Example 389, 4-(4-((1R,5S)-3,8-diazabicyclo[3.2.1]octan-3-yl)-8-fluoro-2-((3-(methoxymethyl)tetrahydro-1H-pyrrolizin-7a(5H)-yl)methoxy)pyrido[4,3-d]pyrimidin-7-yl)naphthalen-2-ol]	781 nM
COC(c1ccc(O)cc1-c1ncc2c(N3CC4CCC(C3)N4)nc(OC[C@@]34CCCN3C[C@H](F)C4)nc2c1F)C(F)(F)F (stereo in doubt) [Example 390, 3-(4-((1R,5S)-3,8-diazabicyclo[3.2.1]octan-3-yl)-8-fluoro-2-((2-fluorotetrahydro-1H-pyrrolizin-7a(5H)-yl)methoxy)pyrido[4,3-d]pyrimidin-7-yl)-4-(2,2,2-trifluoro-1-methoxyethyl)phenol]	6110 nM
CC(C)c1ccc(O)cc1-c1ncc2c(N3CC4CCC(C3)N4)nc(OC[C@@]34CCCN3C[C@H](F)C4)nc2c1F (stereo in doubt) [Example 399, 3-(4-((1R,5S)-3,8-diazabicyclo[3.2.1]octan-3-yl)-8-fluoro-2-((2-fluorotetrahydro-1H-pyrrolizin-7a(5H)-yl)methoxy)pyrido[4,3-d]pyrimidin-7-yl)-4-isopropylphenol]	510 nM
